# From patent US20220041572A1, “CYCLOHEPTYL ACIDS AS LPA ANTAGONISTS” (BRISTOL-MYERS SQUIBB COMPANY, priority 2018, published 2022)
# Tested on: human foetal lung fibroblasts
# Assay: not given
# Conditions: Tager et al. Nature Medicine 2008; cited from earlier work
row,Structure (SMILES),chemotaxis of human foetal lung fibroblasts induced by BAL from IPF patients
1,Cc1noc(-c2ccc(CSCCC(=O)O)cc2)c1NC(=O)OC(C)c1ccccc1Cl (stereo not drawn) [Ki16425],blocked

# Tested on: UUO mice
# Assay: not given
# Conditions: compared with LPA1 (−/−) mice; cited from earlier work
row,Structure (SMILES),renal fibrosis profile of treated UUO mice
1,Cc1noc(-c2ccc(CSCCC(=O)O)cc2)c1NC(=O)OC(C)c1ccccc1Cl (stereo not drawn) [Ki16425],closely resembled the profile of LPA1 (−/−) mice

# Tested on: CTGF
# Assay: not given
# Conditions: MCT cells, co-treatment with LPA; cited from earlier work
row,Structure (SMILES),LPA induction of CTGF expression
1,Cc1noc(-c2ccc(CSCCC(=O)O)cc2)c1NC(=O)OC(C)c1ccccc1Cl (stereo not drawn) [Ki16425],almost completely suppressed

# Tested on: nerve-injured mice
# Assay: not given
# Conditions: pretreatment, Inoue et al 2004; cited from earlier work
row,Structure (SMILES),allodynia and hyperalgesia
1,C[C@@H](N)[C@H]1CC[C@H](C(=O)Nc2ccncc2)CC1 [Example Y-27632],completely abolished

# Tested on: highly peritoneal metastatic pancreatic cancer cell line
# Assay: not given
# Conditions: Yamada et al 2004; cited from earlier work
row,Structure (SMILES),LPA-induced and ascites-induced invasion activity
1,Cc1noc(-c2ccc(CSCCC(=O)O)cc2)c1NC(=O)OC(C)c1ccccc1Cl (stereo not drawn) [Ki16425],blocked

# Target: T1, human LPA1 (Homo sapiens, UniProt Q92633)
# T1 construct: expressed in transfected cells; host or cells: Chinese hamster ovary (CHO) cells
# T1 sequence (Q92633 whole entry): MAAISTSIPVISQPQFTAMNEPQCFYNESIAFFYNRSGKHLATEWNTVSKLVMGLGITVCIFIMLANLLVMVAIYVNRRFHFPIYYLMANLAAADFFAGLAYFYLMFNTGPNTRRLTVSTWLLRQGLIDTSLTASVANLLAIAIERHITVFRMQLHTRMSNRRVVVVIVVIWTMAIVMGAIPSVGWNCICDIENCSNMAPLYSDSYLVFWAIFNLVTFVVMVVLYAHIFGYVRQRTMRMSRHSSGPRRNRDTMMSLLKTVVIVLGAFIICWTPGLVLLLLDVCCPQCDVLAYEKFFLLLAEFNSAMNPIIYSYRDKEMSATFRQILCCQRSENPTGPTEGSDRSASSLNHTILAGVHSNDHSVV
# Assay: LPA1 functional antagonist assay (LPA-induced calcium flux)
# Assay type: cell-based
# Conditions: CHO cells overexpressing human LPA1; inhibition of calcium flux induced by 10 nM LPA; read-out: hLPA1 IC50
# Method: The effectiveness of compounds of the present invention as LPA1 inhibitors can be determined in an LPA1 functional antagonist assay as follows:
# Chinese hamster ovary cells overexpressing human LPA1 were plated overnight (15,000 cells/well) in poly-D-lysine coated 384-well microplates (Greiner bio-one, Cat#781946) in DMEM/F12 medium (Gibco, Cat#11039). Following overnight culture, cells were loaded with calcium indicator dye (AAT Bioquest Inc, Cat#34601) for 30 minutes at 37° C. The cells were then equilibrated to room temperature for 30 minutes before the assay. Test compounds solubilized in DMSO were transferred to 384 well non-binding surface plates (Coming, Cat#3575) using the Labcyte Echo acoustic dispense and diluted with assay buffer [1X HBSS with calcium/magnesium (Gibco Cat#14025-092), 20 mM HEPES (Gibco Cat#15630-080) and 0.1% fatty acid free BSA (Sigma Cat#A9205)] to a final concentration of 0.5% DMSO. Diluted compounds were added to the cells by FDSS6000 (Hamamatsu) at final concentrations ranging from 0.08 nM to 5 μM. and were then incubated for 20 min at room temperature at which time LPA (Avanti Polar Lipids Cat#857130C) was added at final concentrations of 10 nM to stimulate the cells. The compound IC50 value was defined as the concentration of test compound which inhibited 50% of the calcium flux induced by LPA alone. IC50 values were determined by fitting data to a 4-parameter logistic equation (GraphPad Prism, San Diego Calif.).
row,Structure (SMILES),IC50 [nM]
1,"Cc1nc(-c2nnn(C)c2COC(=O)N(C)Cc2ccccc2)ccc1OC1CCCCC(C(=O)O)C1 (racemic) [Example 1, (±)-3-((6-(5-(((benzyl(methyl)carbamoyl)oxy)methyl)-1-methyl-1H-1,2,3-triazol-4-yl)-2-methylpyridin-3-yl)oxy)cycloheptane-1-carboxylic Acid]",16
2,"Cc1nc(-c2nnn(C)c2COC(=O)N(C)CC2CCC2)ccc1O[C@@H]1CCCC[C@@H](C(=O)O)C1 (single isomer, unassigned) [Example 2]",9.5
3,"Cc1nc(-c2nnn(C)c2COC(=O)N(C)CC2CCC2)ccc1O[C@@H]1CCCC[C@@H](C(=O)O)C1 (single isomer, unassigned) [Example 3]",108
4,"Cc1nc(-c2nnn(C)c2COC(=O)N(C)CC2CCC2)ccc1O[C@@H]1CCCC[C@H](C(=O)O)C1 (single isomer, unassigned) [Example 4]",19
5,"Cc1nc(-c2nnn(C)c2COC(=O)N(C)CC2CCC2)ccc1O[C@@H]1CCCC[C@H](C(=O)O)C1 (single isomer, unassigned) [Example 5]",296
6,CCCN(C)C(=O)OCc1c(-c2ccc(OC3CCCCC(C(=O)O)C3)c(C)n2)nnn1C (stereo not drawn) [Example 6],117
7,Cc1nc(-c2nnn(C)c2COC(=O)N(C)CC2CC2)ccc1OC1CCCCC(C(=O)O)C1 (stereo not drawn) [Example 7],11
8,Cc1nc(-c2nnn(C)c2COC(=O)N(C)C2CCCC2)ccc1OC1CCCCC(C(=O)O)C1 (stereo not drawn) [Example 8],11
9,Cc1nc(-c2nnn(C)c2COC(=O)N(C)CC(C)C)ccc1OC1CCCCC(C(=O)O)C1 (stereo not drawn) [Example 9],16
10,Cc1nc(-c2nnn(C)c2COC(=O)N(C)CC(C)C)ccc1OC1CCCCC(C(=O)O)C1 (stereo not drawn) [Example 10],88
11,Cc1nc(-c2nnn(C)c2COC(=O)N(C)CCC(C)C)ccc1OC1CCCCC(C(=O)O)C1 (stereo not drawn) [Example 11],36
12,Cc1nc(-c2nnn(C)c2COC(=O)N(C)CCC(C)C)ccc1OC1CCCCC(C(=O)O)C1 (stereo not drawn) [Example 12],25

# Second part, the compound after the results:
row,IC50 [nM],Structure (SMILES)
1,32,"CCc1cc(OCc2c(-c3ccc(OC4CCCCC(C(=O)O)C4)c(C)n3)nnn2C)ncn1 (racemic) [Example 15, (±)-3-((6-(5-(((6-ethylpyrimidin-4-yl)oxy)methyl)-1-methyl-1H-1,2,3-triazol-4-yl)-2-methylpyridin-3-yl)oxy)cycloheptane-1-carboxylic Acid]"
2,53,"Cc1nc(-c2nnn(C)c2NC(=O)O[C@H](C)c2ccccc2)ccc1OC1CCCCC(C(=O)O)C1 (mixture of isomers) [Example 22, (±)-3-((2-methyl-6-(1-methyl-5-((((R)-1-phenylethoxy)carbonyl)amino)-1H-1,2,3-triazol-4-yl)pyridin-3-yl)oxy)cycloheptane-1-carboxylic Acid]"
3,51,Cc1nc(-c2nnn(C)c2COC(=O)N(C)C2CCC2)ccc1OC1CCCCC(C(=O)O)C1 (stereo not drawn) [Example 13]
4,20,Cc1nc(-c2nnn(C)c2COC(=O)N(C)C2CCC2)ccc1OC1CCCCC(C(=O)O)C1 (stereo not drawn) [Example 14]
5,154,Cc1nc(-c2nnn(C)c2COc2cc(C(C)(C)C)ncn2)ccc1OC1CCCCC(C(=O)O)C1 (stereo not drawn) [Example 16]
6,325,Cc1nc(-c2nnn(C)c2COc2cc(C(C)(C)C)ncn2)ccc1OC1CCCCC(C(=O)O)C1 (stereo not drawn) [Example 17]
7,145,Cc1nc(-c2nnn(C)c2COc2cc(C(C)C)ncn2)ccc1OC1CCCCC(C(=O)O)C1 (stereo not drawn) [Example 18]
8,48,Cc1nc(-c2nnn(C)c2COc2cc(C(C)C)ncn2)ccc1OC1CCCCC(C(=O)O)C1 (stereo not drawn) [Example 19]
9,67,COc1cc(OCc2c(-c3ccc(OC4CCCCC(C(=O)O)C4)c(C)n3)nnn2C)ncn1 (stereo not drawn) [Example 20]
10,26,COc1cc(OCc2c(-c3ccc(OC4CCCCC(C(=O)O)C4)c(C)n3)nnn2C)ncn1 (stereo not drawn) [Example 21]
11,127,Cc1nc(-c2nnn(C)c2NC(=O)OCC2CC2)ccc1OC1CCCCC(C(=O)O)C1 (stereo not drawn) [Example 23]
12,91,Cc1nc(-c2nnn(C)c2NC(=O)OCC(C)C)ccc1OC1CCCCC(C(=O)O)C1 (stereo not drawn) [Example 24]

# Tested on: pancreatic cancer cell lines
# Assay: not given
# Conditions: Yamada et al 2004; cited from earlier work
row,Structure (SMILES),in vitro migration in response to LPA and peritoneal fluid (ascites) from pancreatic cancer patients
1,Cc1noc(-c2ccc(CSCCC(=O)O)cc2)c1NC(=O)OC(C)c1ccccc1Cl (stereo not drawn) [Ki16425],effectively blocked
